This note sets out measurements from article PMC3604040 (Biochemical pharmacology, 2013).

SMILES strings stand for the structures.

The target of data set [1] is T1, UDP-glucuronosyltransferase (UGT 2B7) (Homo sapiens, UniProt P16662).
T1 sequence (P16662 24-529): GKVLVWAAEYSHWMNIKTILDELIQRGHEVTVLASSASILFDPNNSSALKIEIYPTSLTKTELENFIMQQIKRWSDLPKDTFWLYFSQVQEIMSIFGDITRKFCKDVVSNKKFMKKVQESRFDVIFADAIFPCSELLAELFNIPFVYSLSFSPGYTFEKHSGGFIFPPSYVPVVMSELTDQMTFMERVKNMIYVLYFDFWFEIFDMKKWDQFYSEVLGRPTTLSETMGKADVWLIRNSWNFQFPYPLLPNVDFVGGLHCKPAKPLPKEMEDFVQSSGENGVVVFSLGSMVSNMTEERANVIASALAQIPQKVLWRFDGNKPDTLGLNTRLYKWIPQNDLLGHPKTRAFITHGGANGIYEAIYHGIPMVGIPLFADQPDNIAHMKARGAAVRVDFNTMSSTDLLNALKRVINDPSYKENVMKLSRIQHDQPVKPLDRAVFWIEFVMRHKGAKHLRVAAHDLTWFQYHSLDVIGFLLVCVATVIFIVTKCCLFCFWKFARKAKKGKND

Data set [2] can be described thus: Metabolism and stability of PTI in human liver microsomes. The class given is in vitro ADME. The note with it: for metabolite formation in PTI-treated HLMs in the absence of NADPH: 20 min after initiation of the reaction.
Data set [3] is described as follows: Metabolism and stability of PTI in mouse liver microsomes. The class given is in vitro ADME. The note with it: 0.5 mg/ml protein.
Data set [4] can be described thus: Metabolism and stability of PTI in rat liver microsomes. The data set is classed as in vitro ADME. The note with it: 0.5 mg/ml protein. Background: Liver microsomes are vesicles of endoplasmic reticulum, rich in cytochrome P450 enzymes.
For data set [5] the following is noted: UDP-glucuronic acid, in the presence of DFP, 2 h.
Data set [6] is described as follows: Metabolism and stability of PTI in human intestine microsomes. The class given is in vitro ADME. The note with it: 0.25 mg/ml protein, 37°C.
Another data set concerns the target CYP2D6 (Homo sapiens, UniProt P10635). The note with it: recombinant CYP2D6, DFP pre-treated, PTI 2 to 200 µM, 1 h.
Data set [7] is described as follows: Metabolism and stability of PTI in human kidney microsomes. The note with it: 0.25 mg/ml protein, 37°C. The class given is in vitro ADME.
For the next data set, the target named is CYP3A4 (Homo sapiens, UniProt P08684). Particulars: recombinant CYP3A4, DFP pre-treated, PTI 2 to 200 µM, 1 h.
For data set [8] the following is noted: PTI 10 mg/kg oral in corn oil, 3 h post-dosing.
Data set [9] can be described thus: Metabolism and stability of PTI in human lung microsomes. The data set is classed as in vitro ADME. Particulars: 0.25 mg/ml protein, 37°C.
Setting [10] is: 37°C, NADPH-regenerating solution.
[11] abbreviates: twenty minutes after initiation, PTI 75 µM.

CYP2D6, sequence (P10635 whole entry): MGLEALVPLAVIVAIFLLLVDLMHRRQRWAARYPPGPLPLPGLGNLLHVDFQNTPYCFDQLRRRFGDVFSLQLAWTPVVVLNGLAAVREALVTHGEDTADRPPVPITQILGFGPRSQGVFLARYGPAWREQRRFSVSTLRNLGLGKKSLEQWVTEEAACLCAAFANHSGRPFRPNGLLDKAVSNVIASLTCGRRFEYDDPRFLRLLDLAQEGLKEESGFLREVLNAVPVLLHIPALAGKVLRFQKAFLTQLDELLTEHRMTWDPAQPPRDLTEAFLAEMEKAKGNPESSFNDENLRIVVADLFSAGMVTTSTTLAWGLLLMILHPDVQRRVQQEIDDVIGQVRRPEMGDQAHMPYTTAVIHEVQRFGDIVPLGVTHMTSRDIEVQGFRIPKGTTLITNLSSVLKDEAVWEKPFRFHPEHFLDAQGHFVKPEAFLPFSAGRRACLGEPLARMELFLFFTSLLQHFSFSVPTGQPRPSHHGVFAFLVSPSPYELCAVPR
CYP3A4, sequence (P08684 whole entry): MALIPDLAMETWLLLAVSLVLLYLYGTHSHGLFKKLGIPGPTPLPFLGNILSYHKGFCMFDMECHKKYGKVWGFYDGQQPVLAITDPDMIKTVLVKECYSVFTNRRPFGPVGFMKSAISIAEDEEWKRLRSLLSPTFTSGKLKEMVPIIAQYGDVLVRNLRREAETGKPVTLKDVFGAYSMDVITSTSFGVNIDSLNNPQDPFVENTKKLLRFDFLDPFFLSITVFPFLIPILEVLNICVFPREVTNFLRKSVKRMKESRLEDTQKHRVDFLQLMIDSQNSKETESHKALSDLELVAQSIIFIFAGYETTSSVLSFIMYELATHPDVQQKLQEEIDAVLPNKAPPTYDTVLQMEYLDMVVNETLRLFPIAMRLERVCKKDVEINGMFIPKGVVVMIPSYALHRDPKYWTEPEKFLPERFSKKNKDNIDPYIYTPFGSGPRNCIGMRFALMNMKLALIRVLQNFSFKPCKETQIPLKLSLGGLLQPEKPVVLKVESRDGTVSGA

On to `COc1ccc2c(c1)c(CC(=O)O)c(C)n2C(=O)c1ccc(Cl)cc1` [IND, indomethacin, reference compound], for which the “glucuronidation by UGT 2B7” value in [1] is “capable of catalyzing the glucuronidation of IND”.

For the molecule `COc1ccc2[nH]c(C)c(CC(=O)O)c2c1` [debenzoyl-IND], in data set [2], the “metabolite formation in PTI-treated HLMs in the absence of NADPH” value is reported as “detected”.

Consider `Cc1c(CC(=O)O)c2cc(O)ccc2n1C(=O)c1ccc(Cl)cc1` [demethyl-IND], for which, in [2], the “metabolite formation in PTI-treated HLMs in the absence of NADPH” value was “not detected”.

Turning to `CCOP(=O)(OCC)OCCc1ccc(OC(=O)Cc2c(C)n(C(=O)c3ccc(Cl)cc3)c3ccc(OC)cc23)cc1` [PTI, Phospho-tyrosol-indomethacin], the CLint in data set [3] (37°C) stood at 172.4 mL/min/g; in [4] (37°C), 36.9 mL/min/g; in [6], 210.0 mL/min/g; in data set [7], 35.9 mL/min/g; in [2] (human liver microsomes, 0.5 mg/ml protein, 37°C) it was 100.0 mL/min/g; in [9] it was 8.0 mL/min/g. The t1/2 was found to be 8.0 min in data set [3] (setting [10]); 37.6 min in data set [4] (setting [10]); 13.2 min in [6] (NADPH-regenerating solution); 77.3 min in data set [7] (NADPH-regenerating solution); 13.9 min in [2] (human liver microsomes, 0.5 mg/ml protein, 37°C, NADPH-regenerating solution); 348.0 min in data set [9] (NADPH-regenerating solution). The “PTI hydrolyzed to yield IND” value in [3] (setting [11]) came to 80%; in data set [4] (setting [11]), 22%; in data set [2] (human liver microsomes, twenty minutes after initiation, PTI 75 µM, 0.5 mg/ml protein), 52%. Also, the “glucuronidation in HLMs” value in [5] is given as “not glucuronidated”. In addition, the “O-demethylation of PTI Vmax” value turned out to be 70.0 pmol/min/ pmol CYP on CYP2D6 and 1.5 pmol/min/ pmol CYP at CYP3A4. Moreover, in data set [8], the “intact drug in rat plasma” value was “not detected”.
